Experiment: Plasma Kallikrein Assay: Test substances are dissolved in dimethyl sulphoxide and serially diluted in dimethyl sulphoxide (3000 μM to 0.0078 μM; resulting final concentrations in the test: 50 μM to 0.00013 μM). 1 μl of the diluted substance solutions is placed into each of the wells of white microtitre plates from Greiner (384 wells). 20 μl of assay buffer (50 mM Tris/HCl pH 7.4; 100 mM sodium chloride solution; 5 mM of calcium chloride solution; 0.1% of bovine serum albumin) and 20 μl of plasma kallikrein from Kordia (0.6 nM in assay buffer) are then added successively. After 15 min of incubation, the enzyme reaction is started by addition of 20 μl of the substrate H-Pro-Phe-Arg-AMC dissolved in assay buffer (10 μM in assay buffer) from Bachem, the mixture is incubated at room temperature (22° C.) for 30 min and fluorescence is then measured (excitation: 360 nm, emission: 460 nm). The measured emissions of the test batches with test substance are compared to those of control batches without test substance (only dimethyl sulphoxide instead of test substance in dimethyl sulphoxide), and IC50 values are calculated from the concentration/activity relationships.

SMILES: COCCC(C(=O)Nc1cc(F)c(C(N)=O)s1)n1cc(OC)c(-c2cc(Cl)ccc2C#N)cc1=O (stereo unspecified)
- IC50: 100 nM

— ChEMBL document CHEMBL5725619, “Substituted oxopyridine derivatives” (2018)
